The record followed here is the Kinase Knowledgebase extract (Sharma et al. 2016).

SMILES strings stand for the structures. Several values for one entry are separate records, joined by “and”; a condition that tells them apart may be missing. Equal values may be shown once.

One experiment deals with EGFR (human) (UniProt P00533). The note with it: kb.
The target in a further experiment is EGFR (UniProt P00533).
Sequence of EGFR (P00533 whole entry, looked up): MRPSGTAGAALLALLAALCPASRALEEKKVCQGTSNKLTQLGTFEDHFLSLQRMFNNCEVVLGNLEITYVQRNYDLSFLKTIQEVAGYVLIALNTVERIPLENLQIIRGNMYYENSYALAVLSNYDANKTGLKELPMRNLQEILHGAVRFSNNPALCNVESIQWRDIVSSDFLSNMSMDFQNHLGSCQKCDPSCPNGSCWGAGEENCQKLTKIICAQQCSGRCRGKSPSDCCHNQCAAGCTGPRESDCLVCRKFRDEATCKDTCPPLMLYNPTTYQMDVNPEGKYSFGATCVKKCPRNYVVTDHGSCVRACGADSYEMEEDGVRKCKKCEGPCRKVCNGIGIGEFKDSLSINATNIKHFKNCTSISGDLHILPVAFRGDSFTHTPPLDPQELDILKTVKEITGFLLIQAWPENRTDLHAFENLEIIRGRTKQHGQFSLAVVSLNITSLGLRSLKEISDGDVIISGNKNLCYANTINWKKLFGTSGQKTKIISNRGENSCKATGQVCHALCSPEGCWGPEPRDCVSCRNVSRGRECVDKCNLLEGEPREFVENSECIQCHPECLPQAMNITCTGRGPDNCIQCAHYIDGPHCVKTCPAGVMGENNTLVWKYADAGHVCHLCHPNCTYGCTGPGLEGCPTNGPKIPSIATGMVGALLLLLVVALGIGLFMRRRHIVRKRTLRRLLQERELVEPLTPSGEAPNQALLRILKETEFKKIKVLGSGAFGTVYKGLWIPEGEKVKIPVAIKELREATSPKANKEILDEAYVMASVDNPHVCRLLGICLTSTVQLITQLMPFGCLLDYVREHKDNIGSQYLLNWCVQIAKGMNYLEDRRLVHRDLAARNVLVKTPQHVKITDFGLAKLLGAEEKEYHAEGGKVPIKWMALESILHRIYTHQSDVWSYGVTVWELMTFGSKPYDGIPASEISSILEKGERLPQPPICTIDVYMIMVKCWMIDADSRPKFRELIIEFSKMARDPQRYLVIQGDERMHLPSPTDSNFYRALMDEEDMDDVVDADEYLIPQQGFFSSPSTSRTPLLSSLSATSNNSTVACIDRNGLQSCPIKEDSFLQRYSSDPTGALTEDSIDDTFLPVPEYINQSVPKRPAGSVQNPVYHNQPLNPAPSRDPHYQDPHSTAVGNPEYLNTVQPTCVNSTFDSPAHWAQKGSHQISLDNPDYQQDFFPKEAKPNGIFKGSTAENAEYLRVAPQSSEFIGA

Sequence of EGFR (human) (P00533 whole entry, looked up): as above

Usually IC50 stands for the point on the concentration scale where inhibition reaches its midpoint. Lower therefore signals greater potency. Turning to `COc1cc2ncnc(Nc3cccc(Cl)c3F)c2cc1OC1CCN(C(=O)COP(=O)(O)O)CC1`, the IC50 at EGFR (human) and on EGFR was 1 to 100 nM in each case.

With `COc1cc2ncnc(Nc3cccc(Cl)c3F)c2cc1OC1CCN(C(=O)CO)CC1`, the IC50 at EGFR (human) was 1 to 100 nM; against EGFR, 3 nM and 1 to 100 nM.
